The values below come from US10736912B2, “Compositions containing PUFA and/or uridine and methods of use thereof” (MASSACHUSETTS INSTITUE OF TECHNOLOGY, priority 2005, dated 2020).

One experiment concerns brain CDP-choline levels. As to the kind of experiment: Brain CDP-choline and CDP-ethanolamine levels in gerbils. Format: in vivo, gerbil. The conditions noted are these: 28 days. From the text:
FIGS. 5A and 5B. FIG. 5A illustrates the effect Effects of DHA on brain CDP-choline levels (FIG. 5A) and while FIG. 5B illustrates the effect of DHA on brain CDP-ethanolamine levels (FIG. 5B). Groups of 8 gerbils received either a control or a UMP-containing diet, and, by gavage, DHA (in a vehicle of 5% gum Arabic solution) or 5% gum Arabic solution alone for 28 days. On the 29th day brains were harvested and assayed for CDP-choline. Data are presented as means±SEM. Statistical analysis was performed using one- or two-way ANOVA followed by Tukey test. a: P<0.05 when compared with the values for control diet plus vehicle group; b: P<0.05 when compared with values for UMP diet plus vehicle group.
Aliquots (2 ml) of the upper (aqueous) phase were dried under a vacuum, reconstituted, and injected into an HPLC. The dried samples were reconstituted in 100-200 μl water and were analyzed by HPLC on an anion exchange column (Alltech Hypersil APS-2, […], 250×4.6 mm). CDP-choline was eluted with a linear gradient of buffers A (H3PO4, 1.75 mM, pH 2.9) and B (NaH2PO2, 500 mM, pH 4.5) from 0 to 100% B over period of 30 min. With this system, CDP-choline was resolved from closely co-eluting substances such as UMP in an isocratic system over a period of 40 min. The retention time for CDP-choline was 9.5 min. The column was washed with buffer B at the end of each experiment and every several days to remove retained nucleotides. Individual nucleotide peaks were detected by UV absorption at 280 nm and were identified by comparison with the positions of authentic standards, as well as by the addition of nucleotide standards to samples.
To determine the effect of PUFA administration on CDP-choline levels, brain CDP-choline levels were measured in the animals from the previous Example. Administration of DHA and/or UMP decreased CDP-choline levels (FIG. 5A) and CDP-ethanolamine levels (FIG. 5B). DHA reduced CDP-choline levels by 26% (compared with those receiving just the control diet and DHA's vehicle), and in UMP-treated gerbils by 21% (compared with those receiving UMP-containing diet and DHA's vehicle) (both P<0.05).

The test system of experiment [1] is brain phospholipid levels. As to the kind of experiment: Brain phospholipid levels in rat pups of treated pregnant and nursing mothers. Format: in vivo. The conditions noted are these: for PC / PE / PI / SM / Total Phospholipids: rat pups, postnatal day 20, mean. The procedure:
In another study, pregnant rats were allowed to consume ad libitum, for 10 days before parturition and 20 days while nursing, either a choline-containing control diet or this diet supplemented with uridine as UMP; half of each group also received DHA or its diluent daily, by gavage. Pups were then sacrificed and brain slices were examined to determine numbers of hippocampal dendritic spines.
Pregnant and nursing rats were administered DHA and/or uridine as described in Example 9. At 20 days post-birth, rats were sacrificed and brain samples were obtained and assayed for phospholipids. Administration of DHA alone increased brain PC, PI, PE, and sphingomyelin (SM) per cell (DNA) by 36, 166, 38, and 78%, respectively. UMP markedly amplified the effects of DHA to 66, 210, 68, and 99% of control, respectively (Table 8). These increases were greater than those observed in adult animals. Similar results were obtained when normalizing to protein (Table 9). Thus, administration of DHA and/or uridine to pregnant and nursing mothers is able to increase phospholipid levels in the offspring.

The next experiment deals with Rat hippocampal cells. As to the kind of experiment: 14C-choline incorporation into PC in cultured hippocampal neurons. Format: cell-based. Particulars: DHA+choline pre-treatment; 14C-choline 2 h; FIG. 10. The procedure:
Rat hippocampal cells were cultured for 3 weeks in Neutrobasal plus B27 medium, to reach full maturation. On the day of the experiment, cells were incubated with DMEM+choline, with or without added DHA. ^14C-choline was added, cells were incubated for an additional 2 h, and newly-formed ^14C-labeled PC was extracted and measured as described in Example 1.
To determine the effect of DHA on phospholipids in neurons in short-term culture, neurons were pre-treated with DHA+choline. […] These findings confirm that DHA increases phospholipid levels in brain and neural cells.

Setting [2] is: Table 9, nmol per microgram DNA.

Turning to `CCC=CCC=CCC=CCC=CCC=CCC=CCCC(=O)O` [DHA, 4,7,10,13,16,19-docosahexaenoic acid], in the experiment on brain CDP-choline levels, the “CDP-choline levels (FIG. 5A)” value was “decreased” and the “CDP-ethanolamine levels (FIG. 5B)” value is recorded as “decreased”. In experiment [1] (Table 8, nmol per mg protein), this compound had a PC of 115.7 nmol/mg protein, a PE of 95.7 nmol/mg protein, a PI of 5.49 nmol/mg protein and an SM of 7.52 nmol/mg protein. Besides, the “Total Phospholipids” value in experiment [1] (Table 8, nmol per mg protein) is recorded as 322.8 nmol/mg protein. In experiment [1] (setting [2]), this compound yielded a PC of 12.02 nmol/microgram DNA, a PE of 9.98 nmol/microgram DNA, a PI of 0.571 nmol/microgram DNA and an SM of 0.792 nmol/microgram DNA. The “Total Phospholipids” value in experiment [1] (setting [2]) is listed as 33.80 nmol/microgram DNA. In addition, in experiment [1] (rat pups 20 days post-birth), the “Increase in brain PC per cell (DNA)” value is 36%, the “Increase in brain PE per cell (DNA)” value came out at 38%, the “Increase in brain PI per cell (DNA)” value is 166% and the “Increase in brain sphingomyelin (SM) per cell (DNA)” value is given as 78%. Besides, in the experiment on Rat hippocampal cells, the “Increase in synthesis of phospholipids relative to cells administered choline alone” value is given as “more than 2 fold”.
